Source: US9708314B2, “Heterocyclic amide compound” (NISSAN CHEMICAL INDUSTRIES, LTD., priority 2013, dated 2017)

Assays:
Assay type in all cases: in vivo
Veronica persica = assay: Test Example 4: herbicidal effect by application to foliage (diluvial soil, plastic box); details: Application herbicide amount 320 g/ha; foliage application
Outline: (§1)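 Seeds sown in sterilized diluvial soil, covered ~1.5 cm, grown 14 days in greenhouse at 25° C. to 30° C. Emulsion formulation diluted in water to set rate (g/ha) and sprayed onto stems and leaves. Effect scored visually 3 weeks later on 0–5 scale (5 = ≥90% herbicidal ratio, 0 = ≤5%).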

Galium spurium = assay: as above; details: Application herbicide amount 320 g/ha; foliage application
Outline: as §1

Digitaria ciliaris = assay: as above; details: Application herbicide amount 320 g/ha; foliage application
Outline: as §1

Amaranthus retroflexus = assay: as above; details: Application herbicide amount 320 g/ha; foliage application
Outline: as §1

Avena fatua = assay: as above; details: Application herbicide amount 320 g/ha; foliage application
Outline: as §1

Apera spica-venti. = assay: as above; details: Application herbicide amount 320 g/ha; foliage application
Outline: as §1

Abutilon theophrasti = assay: as above; details: Application herbicide amount 320 g/ha; foliage application
Outline: as §1

Lolium multiflorum Lam. = assay: as above; details: Application herbicide amount 320 g/ha; foliage application
Outline: as §1

[1] = test system: Echinochloa crus-galli var. crus-galli; assay: as above; details: Application herbicide amount 320 g/ha; foliage application
Outline: as §1

Chenopodium album = assay: as above; details: Application herbicide amount 320 g/ha; foliage application
Outline: as §1

Stellaria media = assay: as above; details: Application herbicide amount 320 g/ha; foliage application
Outline: as §1

Setaria viridis = assay: as above; details: Application herbicide amount 320 g/ha; foliage application
Outline: as §1

Alopecurus myosuroides = assay: as above; details: Application herbicide amount 320 g/ha; foliage application
Outline: as §1

[2] = test system: transplanted Oryza sativa; assay: Test Example 1: effect on crop, application before weed generation in submerged conditions; details: Application herbicide amount 320 g/ha; Seventeenth Table
Outline: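 Pre-emergence water-surface application under 4 cm flooding, same day as sowing, with rice transplanted at 2.5 leaf stage. Dose given as g/ha. Plants grown at 25° C. to 30° C. and rated three weeks later on a 0 (≤5%) to 5 (≥90%) herbicidal-ratio scale.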

[3] = test system: directly sowed Oryza sativa; assay: Test Example 4: effect on crop by application to foliage (diluvial soil, plastic box); details: Application herbicide amount 320 g/ha; foliage application
Outline: as §1

Brassica campestris L. = assay: as above; details: Application herbicide amount 320 g/ha; foliage application
Outline: as §1

Zea mays = assay: as above; details: Application herbicide amount 320 g/ha; foliage application
Outline: as §1

Glycine max = assay: as above; details: Application herbicide amount 320 g/ha; foliage application
Outline: as §1

Triticum aestivum = assay: as above; details: Application herbicide amount 320 g/ha; foliage application
Outline: as §1

[4] = test system: Beta vulgaris ssp. vulgaris; assay: as above; details: Application herbicide amount 320 g/ha; foliage application
Outline: as §1

SMILES	R (Veronica persica) herbicidal effect grade (Veronica persica)	Q (Galium spurium) herbicidal effect grade (Galium spurium)	F (Digitaria ciliaris) herbicidal effect grade (Digitaria ciliaris)	N (Amaranthus retroflexus) herbicidal effect grade (Amaranthus retroflexus)	I (Avena fatua) herbicidal effect grade (Avena fatua)	L (Apera spica-venti.) herbicidal effect grade (Apera spica-venti.)	M (Abutilon theophrasti) herbicidal effect grade (Abutilon theophrasti)	K (Lolium multiflorum Lam.) herbicidal effect grade (Lolium multiflorum Lam.)	H (Echinochloa crus-galli var. crus-galli) herbicidal effect grade [1]	O (Chenopodium album) herbicidal effect grade (Chenopodium album)	P (Stellaria media) herbicidal effect grade (Stellaria media)	G (Setaria viridis) herbicidal effect grade (Setaria viridis)	J (Alopecurus myosuroides) herbicidal effect grade (Alopecurus myosuroides)	a: transplanted Oryza sativa (effect on crop grade) [2]	b (directly sowed Oryza sativa) effect on crop grade [3]	g (Brassica campestris L.) effect on crop grade (Brassica campestris L.)	c (Zea mays) effect on crop grade (Zea mays)	d (Glycine max) effect on crop grade (Glycine max)	e (Triticum aestivum) effect on crop grade (Triticum aestivum)	f (Beta vulgaris ssp. vulgaris) effect on crop grade [4]
Cc1nnc(NC(=O)c2ccc(C(F)(F)F)n3c(SCc4ccccc4)nnc23)o1 [1-113]	3 (Herbicidal ratio of 40% or more and less than 70%)	0 (Herbicidal ratio of 5% or less (almost no effect))	1 (Herbicidal ratio of 5% or more and less than 20%)	3 (Herbicidal ratio of 40% or more and less than 70%)	0 (Herbicidal ratio of 5% or less (almost no effect))	0 (Herbicidal ratio of 5% or less (almost no effect))	1 (Herbicidal ratio of 5% or more and less than 20%)	0 (Herbicidal ratio of 5% or less (almost no effect))	2 (Herbicidal ratio of 20% or more and less than 40%)	5 (Herbicidal ratio of 90% or more (almost completely withered))	4 (Herbicidal ratio of 70% or more and less than 90%)	0 (Herbicidal ratio of 5% or less (almost no effect))	0 (Herbicidal ratio of 5% or less (almost no effect))	0 (Herbicidal ratio of 5% or less (almost no effect))	0 (Herbicidal ratio of 5% or less (almost no effect))	0 (Herbicidal ratio of 5% or less (almost no effect))	0 (Herbicidal ratio of 5% or less (almost no effect))	0 (Herbicidal ratio of 5% or less (almost no effect))	0 (Herbicidal ratio of 5% or less (almost no effect))	3 (Herbicidal ratio of 40% or more and less than 70%)
COc1ccc(CSc2nnc3c(C(=O)Nc4nnc(C)o4)ccc(C(F)(F)F)n23)cc1 [1-114]	3 (Herbicidal ratio of 40% or more and less than 70%)	1 (Herbicidal ratio of 5% or more and less than 20%)	1 (Herbicidal ratio of 5% or more and less than 20%)	3 (Herbicidal ratio of 40% or more and less than 70%)	0 (Herbicidal ratio of 5% or less (almost no effect))	0 (Herbicidal ratio of 5% or less (almost no effect))	2 (Herbicidal ratio of 20% or more and less than 40%)	0 (Herbicidal ratio of 5% or less (almost no effect))	3 (Herbicidal ratio of 40% or more and less than 70%)	5 (Herbicidal ratio of 90% or more (almost completely withered))	4 (Herbicidal ratio of 70% or more and less than 90%)	0 (Herbicidal ratio of 5% or less (almost no effect))	0 (Herbicidal ratio of 5% or less (almost no effect))	0 (Herbicidal ratio of 5% or less (almost no effect))	0 (Herbicidal ratio of 5% or less (almost no effect))	0 (Herbicidal ratio of 5% or less (almost no effect))	0 (Herbicidal ratio of 5% or less (almost no effect))	0 (Herbicidal ratio of 5% or less (almost no effect))	0 (Herbicidal ratio of 5% or less (almost no effect))	4 (Herbicidal ratio of 70% or more and less than 90%)
Cc1nnc(NC(=O)c2ccc(C(F)(F)F)n3c(SCC4CC4)nnc23)o1 [1-115]	4 (Herbicidal ratio of 70% or more and less than 90%)	3 (Herbicidal ratio of 40% or more and less than 70%)	5 (Herbicidal ratio of 90% or more (almost completely withered))	4 (Herbicidal ratio of 70% or more and less than 90%)	2 (Herbicidal ratio of 20% or more and less than 40%)	2 (Herbicidal ratio of 20% or more and less than 40%)	3 (Herbicidal ratio of 40% or more and less than 70%)	1 (Herbicidal ratio of 5% or more and less than 20%)	5 (Herbicidal ratio of 90% or more (almost completely withered))	5 (Herbicidal ratio of 90% or more (almost completely withered))	4 (Herbicidal ratio of 70% or more and less than 90%)	5 (Herbicidal ratio of 90% or more (almost completely withered))	2 (Herbicidal ratio of 20% or more and less than 40%)	0 (Herbicidal ratio of 5% or less (almost no effect))	0 (Herbicidal ratio of 5% or less (almost no effect))	1 (Herbicidal ratio of 5% or more and less than 20%)	0 (Herbicidal ratio of 5% or less (almost no effect))	2 (Herbicidal ratio of 20% or more and less than 40%)	2 (Herbicidal ratio of 20% or more and less than 40%)	5 (Herbicidal ratio of 90% or more (almost completely withered))
Cc1nnc(NC(=O)c2ccc(C(F)(F)F)n3c(SCC4CCCO4)nnc23)o1 (centres unmarked) [1-116]	4 (Herbicidal ratio of 70% or more and less than 90%)	3 (Herbicidal ratio of 40% or more and less than 70%)	5 (Herbicidal ratio of 90% or more (almost completely withered))	4 (Herbicidal ratio of 70% or more and less than 90%)	3 (Herbicidal ratio of 40% or more and less than 70%)	1 (Herbicidal ratio of 5% or more and less than 20%)	4 (Herbicidal ratio of 70% or more and less than 90%)	1 (Herbicidal ratio of 5% or more and less than 20%)	5 (Herbicidal ratio of 90% or more (almost completely withered))	5 (Herbicidal ratio of 90% or more (almost completely withered))	5 (Herbicidal ratio of 90% or more (almost completely withered))	4 (Herbicidal ratio of 70% or more and less than 90%)	1 (Herbicidal ratio of 5% or more and less than 20%)	0 (Herbicidal ratio of 5% or less (almost no effect))	0 (Herbicidal ratio of 5% or less (almost no effect))	4 (Herbicidal ratio of 70% or more and less than 90%)	0 (Herbicidal ratio of 5% or less (almost no effect))	3 (Herbicidal ratio of 40% or more and less than 70%)	2 (Herbicidal ratio of 20% or more and less than 40%)	5 (Herbicidal ratio of 90% or more (almost completely withered))
